In patent US6630310B1, “Assay for binding between carbohydrate and glycolipid” (Biopolymer Engineering Pharmaceutical, Inc., priority 1996, dated 2003):
Entries after “also recorded” stand apart in the source; their conditions may differ.

Tests used:
[1] = Specific binding of ^3H-PGG-Glucan to sphingolipids in the 96-well plate assay; set-up: ^3H-PGG-Glucan bound (specific binding): unit not given here; conditions: for ^3H-PGG-Glucan bound (specific binding): LacCer of defined fatty acid and long chain base, 96-well plate; for 3H-PGG-Glucan Bound (specific binding): sphingolipid immobilized in 96-well plate, 37° C.; for specific binding to ^3H-underivatized, aqueous soluble β(1-3)-glucan (in words): immobilized on a polystyrene 96-well plate
Protocol: Lactosyl ceramide or the sample to be measured was suspended in ethanol. Aliquots as specified were added in triplicate to the wells of a 96-well plate and air dried. The following components were premixed, then 100 μL was added to each well: saline (10 μL) or unlabelled, underivatized, aqueous soluble β(1-3)-glucan (10 μL of a 10 mg/ml stock), ^3H-underivatized, aqueous soluble β(1-3) glucan (10 μL of a 10 μg/ml stock), and HBSS (80 μL). Plates were incubated at 37° C. for 1.5 to 2 hours, then supernatants were removed from each well and discarded. Wells were rinsed with HBSS (200 μL) and SOLVABLE™ (100 μL) was added. The plate was incubated at 60° C. for 5 minutes, then supernatants were removed and counted.

[2] = test system: human leukocyte membranes; experiment: ^3H-PGG-Glucan binding to pretreated human leukocyte membranes; conditions: for effect of detergent pretreatment of membranes on specific binding (in words): membranes pretreated 5 minutes on ice (CHAPS 0.25%) (FIG. 9)
Protocol: Human leukocyte membranes were incubated in HBSS with or without 0.25% CHAPS for 5 minutes on ice, followed by centrifugation at 180,000×g, 4° C. for 45 minutes. Pellets were used in a binding assay with underivatized, aqueous soluble β(1-3)-glucan or dextran (avg. MW 71,000, Sigma Chemical Co., MO) as indicated at 1 mg/ml final concentration.
Human leukocyte membranes (500 μg protein) were incubated with sodium periodate at concentrations indicated in FIG. 12 (10 and 100 mM) for 30 minutes at room temperature, then centrifuged at 12,000×g for 10 minutes, rinsed and used in a binding assay (non-oil/sucrose; see FIG. 12). Protein-depleted membranes (derived from 1.87 mg human leukocyte membrane protein) were incubated in 0.1 M sodium periodate and treated as described above (FIG. 13).
An alternative procedure to that using the oil/sucrose gradient involved centrifuging 100 μl aliquots of the binding assay in microfuge tubes at 12,000×g, for five minutes, followed by rinsing the resultant pellet with HBSS. Pellets were then dissolved in SOLVABLE™ and radioactively determined as above.

[3] = test system: receptor for underivatized, aqueous soluble β(1-3)-glucan on human leukocyte membranes; experiment: Competition of ^3H-PGG-Glucan binding to human leukocyte membranes (oil/sucrose binding assay)
Protocol: Aminated glucan was prepared by reductive amination of curdlan and provided by Dr. Rolph Seljelid (University of Tromsφ, Tromsφ, Norway).
At the end of the incubation, 100 μl aliquots of reaction mixture were layered on top of a double layer density gradient consisting of 100 μl dibutyl phthalate (lower layer) and 100 μl 8% sucrose in PBS (upper layer) in 400 μl centrifuge tubes (Brinkman). The tubes were spun at 15,000×g for 4-5 minutes and the tips containing the membrane pellets were removed, incubated in 300 μl SOLVABLE™ (New England Nuclear, Boston, Mass.) overnight at 50° C. to dissolve the pellet, and then radioactivity determined by liquid scintillation counting. […] Alternatively, membranes were centrifuged directly in their incubation tubes at 15,000×g for 4-5 minutes at 37° C., the pellet washed with HBSS, then pellets solubilized and radioactivity determined by liquid scintillation counting.

[4] = Competition of ^3H-PGG-Glucan binding to lactosyl ceramide in 96-well plate assay (FIGS. 14, 15); set-up: species or system bovine; conditions: FIGS. 14 and 15
From the text: FIG. 14 is a graph of the comparison of underivatized, aqueous soluble β(1-3)-glucan and single helix competition of ^3H-underivatized, aqueous soluble β(1-3)-glucan binding in three assay formats. Underivatized, aqueous soluble β(1-3)-glucan or single helix glucan was used at designated concentrations to compete for ^3H-underivatized, aqueous soluble β(1-3)-glucan binding to lactosyl ceramide (LacCer) in a 96-well plate (triangles), or to lactosyl ceramide in reconstituted membranes (squares), or to human leukocyte membranes (circles). Open symbols represent underivatized, aqueous soluble β(1-3) glucan, and closed symbols represent single helix. Maximum competition was assigned at the highest concentration of underivatized, aqueous soluble β(1-3)-glucan used as competitor in each type of assay.
FIG. 15 is a graphic illustration of data showing that underivatized, aqueous soluble β(1-3) glucan and high molecular weight underivatized, aqueous soluble β(1-3) glucan (Network) compete more effectively for ^3H-underivatized, aqueous soluble β(1-3)-glucan binding to lactosyl ceramide in a 96-well plate assay than do single helix or laminarin. […]
Lactosyl ceramide or the sample to be measured was suspended in ethanol. […] The plate was incubated at 60° C. for 5 minutes, then supernatants were removed and counted.

[5] = addition at 0.1 mg/ml, ^3H-PGG-Glucan binding to human leukocyte membranes

CCCCCCCCCCCCCCCCCCCCCCCC(=O)NC(CO[C@@H]1O[C@H](CO)[C@@H](O[C@@H]2O[C@H](CO)[C@H](O)[C@H](O)[C@H]2O)[C@H](O)[C@H]1O)C(O)CCCCCCCCCCCCCCC (mixture of isomers) [N-Lignoceroyl-DL-dihydrolacto-cerebroside]
^3H-PGG-Glucan bound (specific binding) [1]: 0.00

CCCCCCCCCCCCCCCC(=O)NC(CO[C@@H]1O[C@H](CO)[C@@H](O[C@@H]2O[C@H](CO)[C@H](O)[C@H](O)[C@H]2O)[C@H](O)[C@H]1O)C(O)CCCCCCCCCCCCCCC (mixture of isomers) [N-Palmitoyl-DL-dihydrolacto-cerebroside]
^3H-PGG-Glucan bound (specific binding) [1]: 0.00

CCCCCCCCCCCCCCCCCC(=O)NC(CO[C@@H]1O[C@H](CO)[C@@H](O[C@@H]2O[C@H](CO)[C@H](O)[C@H](O)[C@H]2O)[C@H](O)[C@H]1O)C(O)CCCCCCCCCCCCCCC (mixture of isomers) [N-Stearoyl-DL-dihydrolacto-cerebroside]
^3H-PGG-Glucan bound (specific binding) [1]: 0.00

C[C@H](CCC(=O)NCCC[N+](C)(C)CCCS(=O)(=O)[O-])[C@H]1CC[C@H]2[C@@H]3[C@H](O)C[C@@H]4C[C@H](O)CC[C@]4(C)[C@H]3C[C@H](O)[C@]12C [CHAPS]
effect of detergent pretreatment of membranes on specific binding (in words) [2]: enhancement of specific binding

O=C(O)CN(CCOCCOCCN(CC(=O)O)CC(=O)O)CC(=O)O [EGTA]
% Control Binding ([3]; addition at 5 mM): 87%

CCCCCCCCCCCCCC=CC(O)C(COC1OC(CO)C(OC2OC(CO)C(O)C(O)C2O)C(O)C1O)NC(=O)CCCCCCCCCCCCCCC (stereo not drawn) [LacCer (HLM) C16:0]
^3H-PGG-Glucan bound (specific binding) [1]: 3.31

CCCCCCCCCCCCC/C=C/[C@@H](O)[C@H](CO[C@@H]1O[C@H](CO)[C@@H](O[C@@H]2O[C@H](CO)[C@H](O)[C@H](O)[C@H]2O)[C@H](O)[C@H]1O)NC(=O)CCCCCCCCCCCCCCCCC [LacCer (HLM) C18:0]
^3H-PGG-Glucan bound (specific binding) [1]: 1.93

CCCCCCCCCCCCCC=CC(O)C(COC1OC(CO)C(OC2OC(CO)C(O)C(O)C2O)C(O)C1O)NC(=O)CCCCCCCCCCCCCCCCCCCCC (stereo not drawn) [LacCer (HLM) C22:0]
^3H-PGG-Glucan bound (specific binding) [1]: 3.57

CCCCCCCCCCCCC/C=C/[C@@H](O)[C@H](CO[C@@H]1O[C@H](CO)[C@@H](O[C@@H]2O[C@H](CO)[C@H](O)[C@H](O)[C@H]2O)[C@H](O)[C@H]1O)NC(=O)CCCCCCCCCCCCCCCCCCCCCCC [LacCer (HLM) C24:0]
^3H-PGG-Glucan bound (specific binding) [1]: 3.14

CCCCCCCCCCCCC/C=C/[C@@H](O)[C@@H](N)CO [Sphingosine]
3H-PGG-Glucan Bound (specific binding) [1]: 0.02 ± 0.00 ng/μg sphingolipid

OC[C@H]1O[C@@H](O[C@@H]2[C@@H](O)[C@H](O[C@@H]3[C@@H](O)[C@H](O[C@@H]4[C@@H](O)[C@H](O[C@@H]5[C@@H](O)[C@H](O[C@@H]6[C@@H](O)[C@H](O[C@@H]7[C@@H](O)[C@H](O)O[C@H](CO)[C@H]7O)O[C@H](CO)[C@H]6O)O[C@H](CO)[C@H]5O)O[C@H](CO)[C@H]4O)O[C@H](CO)[C@H]3O)O[C@H](CO)[C@H]2O)[C@H](O)[C@@H](O)[C@@H]1O [laminariheptose]
inhibition of radioactively labeled underivatized, aqueous soluble β(1-3)-glucan binding to human leukocyte membranes (in words) [3]: no effect

CCCCCCCCO[C@@H]1O[C@H](CO)[C@@H](O)[C@H](O)[C@H]1O [octylglucoside]
effect of detergent pretreatment of membranes on specific binding (in words) [2]: enhancement of specific binding

[Na+].[O-][I+3]([O-])([O-])[O-] [sodium periodate]
effect of sodium periodate treatment of membranes on binding activity (in words) ([2]; 10 and 100 mM, 30 minutes at room temperature (FIGS. 12, 13)): decreased

Ceramides
3H-PGG-Glucan Bound (specific binding) [1]: 0.02 ± 0.01 ng/μg sphingolipid

Dextran
% Control Binding ([3]; addition at 1 mg/ml): 88%

Globoside
3H-PGG-Glucan Bound (specific binding) [1]: 0.00 ± 0.01 ng/μg sphingolipid

Glycogen
% Control Binding [3, 5]: 134%

Laminarin
inhibition of radioactively labeled underivatized, aqueous soluble β(1-3)-glucan binding to human leukocyte membranes (in words) [3]: do not inhibit; also recorded: not inhibited
% Control Binding ([3]; addition at 1 mg/ml): 83%
competition for ^3H-underivatized, aqueous soluble β(1-3)-glucan binding to LacCer in the 96-well plate assay (in words) [4]: does not compete efficiently

Lipopolysaccharide
% Control Binding [3, 5]: 89%

Mannan
% Control Binding ([3]; addition at 1 mg/ml): 88%

Sulfatides
3H-PGG-Glucan Bound (specific binding) [1]: 0.00 ± 0.01 ng/μg sphingolipid

galactosyl ceramides
specific binding to ^3H-underivatized, aqueous soluble β(1-3)-glucan (in words) [1]: significant specific binding

globotriaosyl ceramide [GlobotriaosylCer]
specific binding to ^3H-underivatized, aqueous soluble β(1-3)-glucan (in words) [1]: significant specific binding
3H-PGG-Glucan Bound (specific binding) [1]: 0.84 ± 0.13 ng/μg sphingolipid

lactosyl ceramide
specific binding to ^3H-underivatized, aqueous soluble β(1-3)-glucan (in words) [1]: significant specific binding
